Drawing on US20090062273A1, “3-H-pyrazolopyridines and salts thereof, pharmaceutical compositions comprising same, methods of preparing same and uses of same” (priority 2006, published 2009), this text covers IC50 for 5 molecules.

The target of assay [1] is T1, Tie2 (Homo sapiens, UniProt Q02763). Kind of assay: Tie2 ELISA assay (cellular Tie2 autophosphorylation). The class given is cell-based. Also on record: expressed in transfected cells; host or cells: CHO (CHO Tie2/DHFR). As to conditions: CHO cells stably transfected with Tie2, stimulated by angiopoietin-2; Tie2 autophosphorylation by sandwich-ELISA; read-out: Tie 2 activity (assay 1). For orientation: ELISA stands for enzyme-linked immunosorbent assay.
Target sequence in this assay (Q02763 23-1124, species assumed): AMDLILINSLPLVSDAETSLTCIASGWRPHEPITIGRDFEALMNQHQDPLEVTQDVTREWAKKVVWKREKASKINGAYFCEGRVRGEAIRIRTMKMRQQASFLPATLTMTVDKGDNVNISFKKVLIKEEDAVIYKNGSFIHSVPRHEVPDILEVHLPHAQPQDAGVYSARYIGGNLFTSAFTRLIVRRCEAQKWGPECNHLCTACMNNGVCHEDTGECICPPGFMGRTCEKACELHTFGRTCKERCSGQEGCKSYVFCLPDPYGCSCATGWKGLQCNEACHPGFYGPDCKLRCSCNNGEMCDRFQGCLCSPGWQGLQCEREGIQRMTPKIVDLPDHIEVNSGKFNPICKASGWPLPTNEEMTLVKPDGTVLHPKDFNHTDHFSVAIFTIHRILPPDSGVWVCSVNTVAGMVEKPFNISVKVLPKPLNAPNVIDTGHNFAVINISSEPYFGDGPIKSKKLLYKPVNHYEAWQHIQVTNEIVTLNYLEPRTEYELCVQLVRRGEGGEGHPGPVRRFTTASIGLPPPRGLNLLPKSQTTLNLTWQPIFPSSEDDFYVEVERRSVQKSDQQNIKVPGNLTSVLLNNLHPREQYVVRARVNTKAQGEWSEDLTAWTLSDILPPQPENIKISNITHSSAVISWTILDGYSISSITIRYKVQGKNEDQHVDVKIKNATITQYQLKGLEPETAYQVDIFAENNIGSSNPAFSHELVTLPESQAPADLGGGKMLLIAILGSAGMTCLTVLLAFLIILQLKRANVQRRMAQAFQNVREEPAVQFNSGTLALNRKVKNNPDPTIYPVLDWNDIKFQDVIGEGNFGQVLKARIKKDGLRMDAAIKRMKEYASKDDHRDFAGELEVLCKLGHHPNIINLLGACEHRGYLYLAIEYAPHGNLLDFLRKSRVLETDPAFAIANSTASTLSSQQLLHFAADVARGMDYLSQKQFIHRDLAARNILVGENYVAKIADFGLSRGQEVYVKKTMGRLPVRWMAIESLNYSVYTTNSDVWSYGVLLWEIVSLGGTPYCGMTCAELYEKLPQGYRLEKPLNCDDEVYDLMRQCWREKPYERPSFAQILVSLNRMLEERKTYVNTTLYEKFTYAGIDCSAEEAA

The target of assay [2] is T1, Tie2. Kind of assay: Tie-2-Kinase HTRF-Assay without kinase preactivation. The class given is biochemical. Also on record: fusion protein of GST and the intracellular domains of Tie-2; GST; made in house; host or cells: insect cells (Hi-5). As to conditions: GST-Tie-2 intracellular domains, 10 μM ATP. The procedure, abridged:
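GST fusion of the Tie-2 intracellular domains from insect cells, not preactivated, run 60 min at 22 °C with 10 μM ATP and 1 μM biotinylated peptide, HEPES pH 7 with MgCl2/MnCl2, 1% DMSO; compounds 0.001-20 μM. EDTA stop, HTRF 665/620 nm ratio; IC50 by 4-parameter fit.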
Target sequence in this assay (Q02763 770-1124 limits assumed, species assumed): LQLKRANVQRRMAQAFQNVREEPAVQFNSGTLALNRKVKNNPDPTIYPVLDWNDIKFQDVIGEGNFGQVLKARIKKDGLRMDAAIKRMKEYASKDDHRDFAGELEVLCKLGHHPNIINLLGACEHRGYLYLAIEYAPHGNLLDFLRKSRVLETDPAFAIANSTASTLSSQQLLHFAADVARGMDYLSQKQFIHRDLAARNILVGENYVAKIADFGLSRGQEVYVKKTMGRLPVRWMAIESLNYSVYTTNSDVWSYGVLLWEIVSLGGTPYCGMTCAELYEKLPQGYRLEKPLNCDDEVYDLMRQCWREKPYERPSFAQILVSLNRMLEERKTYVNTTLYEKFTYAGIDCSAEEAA

As to `CCn1ncc2c(-c3ccc(NC(=O)Nc4cc(C(F)(F)F)ccc4F)cc3)cncc21` [Example 10.5, 1-[4-(1-Ethyl-1H-pyrazolo[3,4-c]pyridin-4-yl)-phenyl]3-(2-fluoro-5-trifluoromethyl-phenyl)-urea], the IC50 at Tie2 [1] and against Tie2 [2] was below 501 nM in each case.

As to `Cn1ncc2c(-c3ccc(NC(=O)Nc4cc(C(C)(C)C)nn4-c4ccc(F)cc4)cc3)cncc21` [Example 15.7, 1-[5-tert-Butyl-2-(4-fluoro-phenyl)-2H-pyrazol-3-yl]-3-[4-(1-methyl-1H-pyrazolo[3,4-c]pyridin-4-yl)-phenyl]-urea], the IC50 at Tie2 [1] and on Tie2 [2] was below 501 nM in each case.

With `CC(C)c1cc(NC(=O)Nc2ccc(-c3cncc4c3cnn4C)cc2F)n(-c2cccc(F)c2)n1` [Example 15.2, 1-[2-Fluoro-4-(1-methyl-1H-pyrazolo[3,4-c]pyridin-4-yl)-phenyl]-3-[2-(3-fluoro-phenyl)-5-isopropyl-2H-pyrazol-3-yl]-urea], the IC50 at Tie2 [1] and on Tie2 [2] was below 501 nM each time.

Regarding `Cn1ncc2c(-c3ccc(NC(=O)Nc4cc(C(C)(C)C)nn4-c4ccccc4)cc3)cncc21` [Example 13.4, 1-(5-tert-Butyl-2-phenyl-2H-pyrazol-3-yl)-13-[4-(1-methyl-1H-pyrazolo[3,4-c]pyridin-4-yl)-phenyl]-urea], the IC50 on Tie2 [1] and at Tie2 [2] was below 501 nM throughout.

Take `COCCn1ncc2c(-c3ccc(NC(=O)Nc4cc(C(F)(F)F)ccc4F)c(F)c3)cncc21` [Example 12.5, 1-{2-Fluoro-4-[1-(2-methoxy-ethyl)-1H-pyrazolo[3,4-c]pyridin-4-yl]-phenyl}-3-(2-fluoro-5-trifluoromethyl-phenyl)-urea]: the IC50 on Tie2 [1] and against Tie2 [2] was below 501 nM throughout.
